Data on 29 sequences can be found in the OligoGym collection.

“And” between values parts separate entries of the source, which are not always exact repeats. Identical values can stand only once. After the bases stand the sugars from the 5' end (letter, count) and the backbone: PS all phosphorothioate, else s phosphorothioate and o phosphodiester by linkage. Methylation of C is not given here. e = 2'-O-(2-methoxyethyl) (MOE); d = 2'-deoxy (DNA)

For this data set, the target named is DGAT2. The following applies: ASO.

Consider “GGTCTTTTTGGCTGCCCTGC (sugars e5 d10 e5, PS)”, for which the target mRNA inhibition runs as follows: (HepG2, 2.5 µM) 81% and 84%; (HepG2, 10 µM) 87% and 90%.

In the case of “GGTGATGGGCTTGGAGTAGG (sugars e5 d10 e5, PS)”, the target mRNA inhibition (HepG2, 0.12 µM) is 36%.

For “GGTTCCGCAGGGTGACTGCA (sugars e5 d10 e5, PS)”, the target mRNA inhibition runs as follows: (HepG2, 2.5 µM) 48%; (HepG2, 10 µM) 68%.

As for “GGTTCTTGTCCTGGTCCCAG (sugars e5 d10 e5, PS)”, the target mRNA inhibition is 75% and 77% (HepG2, 2.5 µM); 90% and 94% (HepG2, 10 µM).

The sequence “GGTTGTGTGTCTTCACCAGC (sugars e3 d14 e3, PS)” showed a target mRNA inhibition (HepG2, 0.12 µM) of 70%.

As for “GGTTTACTGCATAGCTGAGC (sugars e5 d10 e5, PS)”, the target mRNA inhibition was 79% and 72% (HepG2, 2.5 µM); 86% and 76% (HepG2, 10 µM).

As to “GTAAGCCTCGGTGTCCTCTC (sugars e5 d10 e5, PS)”, the target mRNA inhibition by setting is: (HepG2, 2.5 µM) 91%; (HepG2, 10 µM) 85%.

As to “GTACACTTCATTCTCTCCAA (sugars e5 d10 e5, PS)”, the target mRNA inhibition (HepG2, 0.12 µM) worked out at 82%.

For “GTATCCTTAAAGCAGGGCCC (sugars e5 d10 e5, PS)”, the target mRNA inhibition reads like this: (HepG2, 2.5 µM) 84% and 81%; (HepG2, 10 µM) 85% and 89%.

In turn, “GTCAAACACCAGCCAAGTGA (sugars e5 d10 e5, PS)” came in with a target mRNA inhibition (HepG2, 0.12 µM) of 15%.

Consider “GTCAGCAGGTTGTGTGTCTT (sugars e5 d10 e5, PS)”, for which the target mRNA inhibition by setting is: (HepG2, 0.12 µM) 64% and 59%; (HepG2, 2.5 µM) 30%; (HepG2, 10 µM) 76%; (HepG2, 20 µM) 93%.

For “GTCATACTTACTGTTCAGCA (sugars e5 d10 e5, PS)”, the target mRNA inhibition is, setting by setting: (HepG2, 2.5 µM) 78% and 65%; (HepG2, 10 µM) 94% and 91%.

For the sequence “GTCCTAGTGCCCCAGGG (sugars e3 d10 e4, PS)”, the target mRNA inhibition (HepG2, 2.5 µM) was 76% and 86%; the target mRNA inhibition (HepG2, 10 µM) is 93% and 95%.

As to “GTCCTGCAGTTTCAGGACTA (sugars e5 d10 e5, PS)”, for the setting “HepG2, 0.12 µM”, the target mRNA inhibition is 54%.

Turning to “GTCTGGGAACAGCAGCATCA (sugars e5 d10 e5, PS)”, the target mRNA inhibition (HepG2, 2.5 µM) was 72% and the target mRNA inhibition (HepG2, 10 µM) was found to be 89%.

Turning to “GTCTGTGCTGCATCCATGTC (sugars e5 d10 e5, PS)”, the target mRNA inhibition is, setting by setting: (HepG2, 2.5 µM) 41% and 50%; (HepG2, 10 µM) 74%.

For “GTGATGACTTCCCAGGG (sugars e3 d10 e4, PS)”, the target mRNA inhibition was 66% and 82% (HepG2, 2.5 µM); 67% and 84% (HepG2, 10 µM).

In the case of “GTGATTATTCTAAAACTCAA (sugars e5 d10 e5, PS)”, the target mRNA inhibition runs as follows: (HepG2, 2.5 µM) 34%; (HepG2, 10 µM) 71%.

Consider “GTGCAGCCTACAAGAGCCTG (sugars e5 d10 e5, PS)”, for which the target mRNA inhibition by setting is: (HepG2, 2.5 µM) 67%; (HepG2, 10 µM) 86%.

As to “GTGCTCTCCAACTCCTCCCC (sugars e5 d10 e5, PS)”, the target mRNA inhibition (HepG2, 0.12 µM) was found to be 34%.

As for “GTGCTTTCTAAGTACCCTTT (sugars e5 d10 e5, PS)”, the target mRNA inhibition was 81% and 78% (HepG2, 2.5 µM); 92% and 89% (HepG2, 10 µM).

In turn, “GTGGGAAAGGCACAGGCTTT (sugars e5 d10 e5, PS)” returned a target mRNA inhibition (HepG2, 0.12 µM) of 53%.

With “GTGGTCTGGGAACAGCAGCA (sugars e5 d10 e5, PS)”, the target mRNA inhibition by setting is: (HepG2, 2.5 µM) 72% and 61%; (HepG2, 10 µM) 66% and 72%.

With “GTGGTTGCAATGTTGCC (sugars e3 d10 e4, PS)”, the target mRNA inhibition by setting is: (HepG2, 2.5 µM) 67% and 80%; (HepG2, 10 µM) 88% and 94%.

“GTGTGTCTTCACCAGCTGGA (sugars e5 d10 e5, PS)”: the target mRNA inhibition (HepG2, 0.12 µM) was determined as 53%.

With “GTTCCTGGTGGTCAGCAGGT (sugars e5 d10 e5, PS)”, for the setting “HepG2, 0.12 µM”, the target mRNA inhibition came out at 63%.

With “GTTCTTGTCCTGGTCCCAGT (sugars e5 d10 e5, PS)”, the target mRNA inhibition reads like this: (HepG2, 2.5 µM) 83% and 68%; (HepG2, 10 µM) 95% and 93%.

Consider “GTTCTTTTGGAAGGGTGGAG (sugars e5 d10 e5, PS)”, for which, where the note is “HepG2, 0.12 µM”, the target mRNA inhibition stood at 52%.

“GTTGCAATGTTGCCATC (sugars e3 d10 e4, PS)”: the target mRNA inhibition was 69% and 75% (HepG2, 2.5 µM); 89% and 96% (HepG2, 10 µM).
